Assay results from ChEMBL document CHEMBL5291721, “A preclinical secondary pharmacology resource illuminates target-adverse drug reaction associations of marketed drugs” (Nat Commun, 2023).

Legend:
Acetylcholinesterase = Acetylcholinesterase (Homo sapiens, UniProt P22303); assay type: functional
Adenosine receptor A3 = target: T1, Adenosine receptor A3 (Homo sapiens, UniProt P0DMS8)
T1 sequence (P0DMS8 whole entry): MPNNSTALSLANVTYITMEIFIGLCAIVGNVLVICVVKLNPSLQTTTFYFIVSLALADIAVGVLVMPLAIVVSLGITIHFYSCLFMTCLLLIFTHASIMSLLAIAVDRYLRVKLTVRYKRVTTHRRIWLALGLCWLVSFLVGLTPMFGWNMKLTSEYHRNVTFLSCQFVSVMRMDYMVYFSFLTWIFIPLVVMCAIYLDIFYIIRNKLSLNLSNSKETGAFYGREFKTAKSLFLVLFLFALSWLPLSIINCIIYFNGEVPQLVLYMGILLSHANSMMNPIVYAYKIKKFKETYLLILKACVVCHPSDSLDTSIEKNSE

[1] = target: T2, Alpha-1A adrenergic receptor (Homo sapiens, UniProt P35348); assay type: functional, cell-based
T2 sequence (P35348 whole entry): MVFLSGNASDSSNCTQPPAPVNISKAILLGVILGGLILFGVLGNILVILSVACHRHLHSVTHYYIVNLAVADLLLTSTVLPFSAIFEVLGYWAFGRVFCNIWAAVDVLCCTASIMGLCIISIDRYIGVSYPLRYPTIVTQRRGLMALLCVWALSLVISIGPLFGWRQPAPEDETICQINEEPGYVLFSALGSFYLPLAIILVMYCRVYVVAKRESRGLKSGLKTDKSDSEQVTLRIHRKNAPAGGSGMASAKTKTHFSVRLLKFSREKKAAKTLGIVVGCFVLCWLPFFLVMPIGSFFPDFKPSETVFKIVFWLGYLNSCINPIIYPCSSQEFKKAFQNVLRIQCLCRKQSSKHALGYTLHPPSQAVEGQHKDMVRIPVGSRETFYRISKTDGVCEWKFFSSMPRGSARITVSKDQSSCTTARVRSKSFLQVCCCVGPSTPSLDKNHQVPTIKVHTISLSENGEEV

[2] = target: T2, Alpha-1A adrenergic receptor; assay type: functional, cell-based; remark: listed apart in the source
Histamine H3 receptor = Histamine H3 receptor (Homo sapiens, UniProt Q9Y5N1)
[3] = target: Voltage-gated inwardly rectifying potassium channel KCNH2 (Homo sapiens, UniProt Q12809); assay type: functional; conditions: read-out: AC50
[4] = target: T3, Amine oxidase [flavin-containing] A (Homo sapiens, UniProt P21397); assay type: functional
T3 sequence (P21397 whole entry): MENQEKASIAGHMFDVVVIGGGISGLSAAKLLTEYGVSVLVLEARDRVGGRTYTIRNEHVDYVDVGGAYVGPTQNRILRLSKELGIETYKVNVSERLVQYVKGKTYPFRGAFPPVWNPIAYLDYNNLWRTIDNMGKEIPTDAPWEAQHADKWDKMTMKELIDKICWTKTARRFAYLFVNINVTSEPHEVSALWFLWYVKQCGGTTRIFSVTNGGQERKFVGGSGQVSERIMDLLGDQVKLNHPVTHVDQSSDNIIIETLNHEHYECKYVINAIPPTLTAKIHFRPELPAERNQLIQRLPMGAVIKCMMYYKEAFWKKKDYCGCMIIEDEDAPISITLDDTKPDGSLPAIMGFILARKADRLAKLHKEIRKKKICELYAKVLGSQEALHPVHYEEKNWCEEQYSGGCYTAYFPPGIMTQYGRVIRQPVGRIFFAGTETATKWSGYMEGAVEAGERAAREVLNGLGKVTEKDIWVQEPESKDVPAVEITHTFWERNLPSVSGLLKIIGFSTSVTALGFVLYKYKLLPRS

Mu-type opioid receptor = Mu-type opioid receptor (Homo sapiens, UniProt P35372)
[5] = target: cGMP-inhibited 3',5'-cyclic phosphodiesterase 3A (Homo sapiens, UniProt Q14432); assay type: functional
[6] = target: 3',5'-cyclic-AMP phosphodiesterase 4A (Homo sapiens, UniProt P27815); assay type: functional
Thromboxane A2 receptor = target: T4, Thromboxane A2 receptor (Homo sapiens, UniProt P21731); assay type: functional, cell-based
T4 sequence (P21731 whole entry): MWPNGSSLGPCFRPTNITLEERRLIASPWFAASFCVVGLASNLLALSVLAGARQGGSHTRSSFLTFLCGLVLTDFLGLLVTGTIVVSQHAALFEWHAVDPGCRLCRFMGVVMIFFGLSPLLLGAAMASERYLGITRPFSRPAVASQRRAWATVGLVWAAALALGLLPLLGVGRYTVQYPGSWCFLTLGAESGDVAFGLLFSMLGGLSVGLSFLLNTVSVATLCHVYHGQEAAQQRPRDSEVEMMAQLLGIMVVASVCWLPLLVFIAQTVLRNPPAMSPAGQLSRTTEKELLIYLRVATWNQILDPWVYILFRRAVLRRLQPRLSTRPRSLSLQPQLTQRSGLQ
Note: assay procedure not described here.

Sequence of Histamine H3 receptor (Q9Y5N1 whole entry): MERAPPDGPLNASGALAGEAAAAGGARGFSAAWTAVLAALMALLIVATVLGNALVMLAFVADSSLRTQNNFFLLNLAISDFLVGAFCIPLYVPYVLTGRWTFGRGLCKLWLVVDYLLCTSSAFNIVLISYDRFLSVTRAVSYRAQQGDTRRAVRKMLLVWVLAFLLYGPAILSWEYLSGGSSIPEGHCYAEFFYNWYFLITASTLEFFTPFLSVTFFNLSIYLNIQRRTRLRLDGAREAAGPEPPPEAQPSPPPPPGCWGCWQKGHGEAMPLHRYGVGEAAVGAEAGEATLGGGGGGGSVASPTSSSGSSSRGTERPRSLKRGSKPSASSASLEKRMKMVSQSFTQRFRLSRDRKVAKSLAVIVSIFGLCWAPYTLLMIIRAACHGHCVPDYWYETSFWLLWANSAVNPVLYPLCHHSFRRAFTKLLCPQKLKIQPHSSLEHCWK
Sequence of Voltage-gated inwardly rectifying potassium channel KCNH2 (Q12809 whole entry): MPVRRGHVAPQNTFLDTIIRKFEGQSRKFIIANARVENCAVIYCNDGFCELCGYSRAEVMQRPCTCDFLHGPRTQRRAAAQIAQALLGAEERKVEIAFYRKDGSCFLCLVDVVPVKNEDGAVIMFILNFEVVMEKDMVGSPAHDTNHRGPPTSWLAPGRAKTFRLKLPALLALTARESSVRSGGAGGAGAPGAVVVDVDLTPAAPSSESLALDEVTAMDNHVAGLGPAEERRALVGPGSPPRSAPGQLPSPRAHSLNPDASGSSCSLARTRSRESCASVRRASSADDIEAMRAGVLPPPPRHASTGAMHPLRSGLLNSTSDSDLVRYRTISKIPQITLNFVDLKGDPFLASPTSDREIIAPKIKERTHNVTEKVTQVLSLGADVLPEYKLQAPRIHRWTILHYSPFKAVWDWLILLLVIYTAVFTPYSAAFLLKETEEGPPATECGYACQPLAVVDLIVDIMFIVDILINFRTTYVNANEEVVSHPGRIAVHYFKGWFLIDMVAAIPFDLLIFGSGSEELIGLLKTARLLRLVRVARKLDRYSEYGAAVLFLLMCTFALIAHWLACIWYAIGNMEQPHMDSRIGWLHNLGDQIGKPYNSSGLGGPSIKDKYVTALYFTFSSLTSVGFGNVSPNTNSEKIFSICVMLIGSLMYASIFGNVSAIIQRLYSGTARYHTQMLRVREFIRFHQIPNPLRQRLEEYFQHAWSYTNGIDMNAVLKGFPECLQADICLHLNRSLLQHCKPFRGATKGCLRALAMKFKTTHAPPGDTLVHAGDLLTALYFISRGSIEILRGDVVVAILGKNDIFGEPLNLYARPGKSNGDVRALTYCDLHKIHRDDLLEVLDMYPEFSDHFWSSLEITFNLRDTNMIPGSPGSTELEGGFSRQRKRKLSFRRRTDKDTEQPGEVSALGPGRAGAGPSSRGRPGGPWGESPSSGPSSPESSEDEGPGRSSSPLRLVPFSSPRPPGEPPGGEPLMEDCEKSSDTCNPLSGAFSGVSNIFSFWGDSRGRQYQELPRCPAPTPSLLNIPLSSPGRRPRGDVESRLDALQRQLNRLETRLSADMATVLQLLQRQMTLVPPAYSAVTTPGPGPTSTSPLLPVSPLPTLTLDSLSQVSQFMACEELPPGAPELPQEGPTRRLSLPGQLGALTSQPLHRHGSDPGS
Sequence of Mu-type opioid receptor (P35372 whole entry): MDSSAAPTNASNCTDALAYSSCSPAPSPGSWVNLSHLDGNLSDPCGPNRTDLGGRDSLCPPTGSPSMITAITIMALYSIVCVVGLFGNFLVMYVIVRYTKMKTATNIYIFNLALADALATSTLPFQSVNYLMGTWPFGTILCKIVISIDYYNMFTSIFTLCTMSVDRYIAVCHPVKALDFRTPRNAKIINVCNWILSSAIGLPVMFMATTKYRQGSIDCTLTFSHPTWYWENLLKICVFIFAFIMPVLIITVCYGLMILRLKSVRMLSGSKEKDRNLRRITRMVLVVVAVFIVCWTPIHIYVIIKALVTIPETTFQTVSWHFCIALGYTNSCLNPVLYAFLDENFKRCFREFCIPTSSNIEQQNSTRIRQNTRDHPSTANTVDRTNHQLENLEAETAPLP
Sequence of Acetylcholinesterase (P22303 whole entry): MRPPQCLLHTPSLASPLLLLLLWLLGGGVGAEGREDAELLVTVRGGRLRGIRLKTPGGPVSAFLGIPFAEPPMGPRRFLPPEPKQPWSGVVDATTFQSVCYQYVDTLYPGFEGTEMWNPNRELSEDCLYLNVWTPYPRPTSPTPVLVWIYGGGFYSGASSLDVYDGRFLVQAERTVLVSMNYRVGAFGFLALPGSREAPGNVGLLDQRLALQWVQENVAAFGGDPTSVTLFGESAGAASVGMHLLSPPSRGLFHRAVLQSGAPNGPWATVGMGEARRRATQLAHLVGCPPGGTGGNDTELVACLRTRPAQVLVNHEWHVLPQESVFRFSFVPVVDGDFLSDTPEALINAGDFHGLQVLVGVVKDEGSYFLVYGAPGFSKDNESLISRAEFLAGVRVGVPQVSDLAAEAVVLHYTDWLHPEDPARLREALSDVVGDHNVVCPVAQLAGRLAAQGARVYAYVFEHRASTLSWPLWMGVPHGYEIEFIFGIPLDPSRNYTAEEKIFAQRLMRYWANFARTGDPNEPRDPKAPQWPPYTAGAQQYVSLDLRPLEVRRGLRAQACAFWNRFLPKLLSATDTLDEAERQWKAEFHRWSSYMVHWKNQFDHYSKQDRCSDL
Sequence of 3',5'-cyclic-AMP phosphodiesterase 4A (P27815 whole entry): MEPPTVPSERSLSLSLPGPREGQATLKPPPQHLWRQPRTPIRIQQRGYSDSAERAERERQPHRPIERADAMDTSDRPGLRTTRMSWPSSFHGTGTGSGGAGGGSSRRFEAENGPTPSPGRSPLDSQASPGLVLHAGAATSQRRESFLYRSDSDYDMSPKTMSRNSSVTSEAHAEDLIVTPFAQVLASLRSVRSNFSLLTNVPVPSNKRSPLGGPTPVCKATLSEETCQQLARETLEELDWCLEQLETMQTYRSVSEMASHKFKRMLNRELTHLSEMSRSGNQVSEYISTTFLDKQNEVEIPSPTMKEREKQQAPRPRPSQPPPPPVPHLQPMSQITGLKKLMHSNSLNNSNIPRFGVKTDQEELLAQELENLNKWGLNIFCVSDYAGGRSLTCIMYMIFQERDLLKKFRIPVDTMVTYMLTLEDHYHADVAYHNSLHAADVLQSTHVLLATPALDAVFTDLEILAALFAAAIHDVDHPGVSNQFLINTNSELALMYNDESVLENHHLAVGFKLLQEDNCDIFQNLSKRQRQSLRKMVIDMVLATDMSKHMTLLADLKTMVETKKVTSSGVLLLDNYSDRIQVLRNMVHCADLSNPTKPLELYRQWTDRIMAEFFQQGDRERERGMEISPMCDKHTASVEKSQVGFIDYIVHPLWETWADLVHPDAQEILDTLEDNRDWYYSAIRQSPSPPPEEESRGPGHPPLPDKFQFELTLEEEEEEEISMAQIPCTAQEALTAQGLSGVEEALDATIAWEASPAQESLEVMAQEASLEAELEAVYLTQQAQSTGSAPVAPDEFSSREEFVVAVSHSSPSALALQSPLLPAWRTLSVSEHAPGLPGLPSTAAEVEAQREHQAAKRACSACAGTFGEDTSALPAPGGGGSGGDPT
Sequence of cGMP-inhibited 3',5'-cyclic phosphodiesterase 3A (Q14432 whole entry): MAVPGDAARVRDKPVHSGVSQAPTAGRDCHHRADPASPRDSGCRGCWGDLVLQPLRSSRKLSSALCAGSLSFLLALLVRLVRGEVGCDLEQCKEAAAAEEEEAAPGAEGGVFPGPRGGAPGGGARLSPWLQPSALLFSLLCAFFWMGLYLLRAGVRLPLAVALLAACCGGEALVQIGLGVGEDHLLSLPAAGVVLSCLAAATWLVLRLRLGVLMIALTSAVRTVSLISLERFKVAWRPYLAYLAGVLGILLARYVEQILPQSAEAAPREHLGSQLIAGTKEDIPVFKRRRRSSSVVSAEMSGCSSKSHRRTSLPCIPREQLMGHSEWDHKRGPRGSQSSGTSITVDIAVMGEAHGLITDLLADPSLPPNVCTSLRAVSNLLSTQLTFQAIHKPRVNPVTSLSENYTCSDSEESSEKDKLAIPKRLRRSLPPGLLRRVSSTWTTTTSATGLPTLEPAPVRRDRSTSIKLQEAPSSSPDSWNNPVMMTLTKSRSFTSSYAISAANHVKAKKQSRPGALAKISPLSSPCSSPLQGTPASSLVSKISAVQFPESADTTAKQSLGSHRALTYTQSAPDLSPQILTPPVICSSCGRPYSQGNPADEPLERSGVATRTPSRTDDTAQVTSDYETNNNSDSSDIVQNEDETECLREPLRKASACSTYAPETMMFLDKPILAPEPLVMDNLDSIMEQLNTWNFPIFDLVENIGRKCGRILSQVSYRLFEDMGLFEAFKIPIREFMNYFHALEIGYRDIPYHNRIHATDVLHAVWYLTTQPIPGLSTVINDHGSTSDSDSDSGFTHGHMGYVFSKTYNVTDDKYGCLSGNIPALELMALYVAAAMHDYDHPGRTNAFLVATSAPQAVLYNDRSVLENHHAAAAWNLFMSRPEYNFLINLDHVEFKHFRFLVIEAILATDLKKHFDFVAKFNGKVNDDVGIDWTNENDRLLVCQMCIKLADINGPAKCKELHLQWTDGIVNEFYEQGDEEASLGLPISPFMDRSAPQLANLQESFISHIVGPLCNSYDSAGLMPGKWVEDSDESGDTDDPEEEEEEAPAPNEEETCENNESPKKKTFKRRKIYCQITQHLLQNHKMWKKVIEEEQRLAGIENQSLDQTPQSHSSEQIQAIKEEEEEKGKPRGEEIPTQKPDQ

| Structure (SMILES) | AC50 (Acetylcholinesterase) [µM] | AC50 (Adenosine receptor A3) [µM] | AC50 [1] [µM] | AC50 [2] [µM] | AC50 (Histamine H3 receptor) [µM] | AC50 [3] [µM] | AC50 [4] [µM] | AC50 (Mu-type opioid receptor) [µM] | AC50 [5] [µM] | AC50 [6] [µM] | AC50 (Thromboxane A2 receptor) [µM] |
| --- | --- | --- | --- | --- | --- | --- | --- | --- | --- | --- | --- |
| CCOC1O[C@H]([C@@H](COCc2ccccc2)OCc2ccccc2)[C@H](OCc2ccccc2)[C@H]1O (stereo partly drawn) [TRIBENOSIDE] | > 30 | 14 | > 30 | 15.2 | > 30 | > 30 | > 30 | > 30 | > 30 | > 30 | 11.9 |
| Cc1c(C(C)C)c(=O)n(-c2ccccc2)n1C [PROPYPHENAZONE] | > 30 | 21.9 | > 30 | > 30 | > 30 | > 30 | > 30 | > 30 | > 30 | > 30 | > 30 |
| O=c1[nH]c(=O)n([C@H]2C[C@H](O)[C@@H](CO)O2)cc1/C=C/Br [BRIVUDINE] | > 30 | > 30 | > 30 | > 30 | > 30 | > 30 | > 30 | > 30 | > 30 | > 30 | > 30 |
| C[C@@H]1CN(c2c(F)c(N)c3c(=O)c(C(=O)O)cn(C4CC4)c3c2F)C[C@H](C)N1 [SPARFLOXACIN] | > 30 | > 30 | > 30 | > 30 | > 30 | 6.8 | > 30 | > 30 | > 30 | > 30 | > 30 |
| CC1(C)CCC(C)(C)c2cc(NC(=O)c3ccc(C(=O)O)cc3)ccc21 [TAMIBAROTENE] | > 30 | 29.8 | > 30 | > 10 | > 30 | – | > 30 | > 30 | > 30 | > 30 | 9.94 |
| COC(=O)N(C)c1c(N)nc(-c2nn(Cc3ccccc3F)c3ncccc23)nc1N [RIOCIGUAT] | > 30 | 13.9 | > 30 | > 30 | > 30 | 5 | > 30 | > 30 | > 30 | > 30 | > 30 |
| CC(C)NC[C@H](O)COc1ccc(CCOCC2CC2)cc1 [LEVOBETAXOLOL] | > 30 | > 30 | > 30 | > 30 | > 30 | > 30 | > 30 | > 30 | > 30 | > 30 | > 30 |
| Cc1ccc(Cl)c(Nc2ccccc2C(=O)O)c1Cl [MECLOFENAMIC ACID] | > 30 | 29.6 | > 30 | > 30 | > 30 | > 30 | > 30 | > 30 | > 30 | 25.5 | 20 |
| O=C1Nc2ccccc2C1(c1ccc(O)cc1)c1ccc(O)cc1 [OXYPHENISATINE] | > 30 | 5.01 | > 30 | > 30 | > 30 | 10.1 | > 30 | > 30 | > 30 | > 30 | > 30 |
| COCC(=O)O[C@]1(CCN(C)CCCc2nc3ccccc3[nH]2)CCc2cc(F)ccc2[C@@H]1C(C)C [MIBEFRADIL] | > 30 | 14.3 | 25.9 | 1.58 | > 30 | – | > 30 | 0.979 | > 30 | > 30 | > 3 |
| CNC(=O)c1cnn(-c2nc(N)c3ncn([C@@H]4O[C@H](CO)[C@@H](O)[C@H]4O)c3n2)c1 [REGADENOSON ANHYDROUS] | > 30 | 0.481 | 28.2 | > 30 | > 30 | – | > 30 | > 30 | > 30 | > 30 | > 30 |
| CC1=C(/C=C/C(C)=C/C=C/C(C)=C\C(=O)O)C(C)(C)CCC1 [ISOTRETINOIN] | > 30 | > 30 | > 30 | > 30 | > 30 | – | > 30 | > 30 | > 30 | > 30 | > 30 |
| NS(=O)(=O)c1cc2c(cc1Cl)NC(C(Cl)Cl)NS2(=O)=O (stereo not drawn) [TRICHLORMETHIAZIDE] | > 30 | > 30 | > 30 | > 30 | > 30 | – | > 30 | > 30 | > 30 | > 30 | > 30 |
| CC1=C(/C=C/C(C)=C\C=C\C(C)=C\C(=O)O)C(C)(C)CCC1 [ALITRETINOIN] | > 30 | > 30 | > 30 | > 30 | > 30 | – | > 30 | > 30 | > 30 | > 30 | > 30 |
| COc1cccc2c1C(=O)c1c(O)c3c(c(O)c1C2=O)C[C@@](O)(C(=O)CO)C[C@@H]3O[C@H]1C[C@H](N)[C@@H](O)[C@H](C)O1 [EPIRUBICIN] | 17 | > 30 | 8.86 | > 1 | > 30 | – | > 30 | > 30 | > 30 | 19.3 | > 30 |
| N[C@@H](Cc1ccc(O)cc1)C(=O)O [TYROSINE] | > 30 | > 30 | > 30 | > 30 | > 30 | – | > 30 | > 30 | > 30 | > 30 | > 30 |
| CC(=O)OCC(=O)[C@@]1(O)CC[C@H]2[C@@H]3C[C@H](C)C4=CC(=O)C=C[C@]4(C)[C@H]3[C@@H](O)C[C@@]21C [METHYLPREDNISOLONE ACETATE] | > 30 | > 30 | > 30 | > 30 | > 30 | – | > 30 | > 30 | > 30 | > 30 | > 30 |
| Cn1c(CCCC(=O)O)nc2cc(N(CCCl)CCCl)ccc21 [BENDAMUSTINE] | > 30 | > 30 | > 30 | > 30 | > 30 | – | > 30 | > 30 | > 30 | > 30 | > 30 |
| CC1(C)S[C@@H]2[C@H](NC(=O)[C@H](NC(=O)c3cnc4cccnc4c3O)c3ccccc3)C(=O)N2[C@H]1C(=O)O [APALCILLIN] | > 30 | 29 | > 30 | > 30 | > 30 | – | > 30 | > 30 | > 30 | > 30 | > 30 |
